Data: paper PMC5865651, “Novel inhibitor candidates of TRPV2 prevent damage of dystrophic myocytes and ameliorate against dilated cardiomyopathy in a hamster model” (Oncotarget, 2018)

How the values were obtained:
human TRPV2 (hTRPV2) [1] = biological target: T1, human TRPV2 (hTRPV2) (Homo sapiens, UniProt Q9Y5S1); experiment: CaCl2 (5 mM)-induced increase in [Ca2+]i in CHO cells expressing hTRPV2; assay type: cell-based; parameters: expressed in transfected cells; host or cells: CHO cells; conditions: compound 15 μM
T1 sequence (Q9Y5S1 1-764): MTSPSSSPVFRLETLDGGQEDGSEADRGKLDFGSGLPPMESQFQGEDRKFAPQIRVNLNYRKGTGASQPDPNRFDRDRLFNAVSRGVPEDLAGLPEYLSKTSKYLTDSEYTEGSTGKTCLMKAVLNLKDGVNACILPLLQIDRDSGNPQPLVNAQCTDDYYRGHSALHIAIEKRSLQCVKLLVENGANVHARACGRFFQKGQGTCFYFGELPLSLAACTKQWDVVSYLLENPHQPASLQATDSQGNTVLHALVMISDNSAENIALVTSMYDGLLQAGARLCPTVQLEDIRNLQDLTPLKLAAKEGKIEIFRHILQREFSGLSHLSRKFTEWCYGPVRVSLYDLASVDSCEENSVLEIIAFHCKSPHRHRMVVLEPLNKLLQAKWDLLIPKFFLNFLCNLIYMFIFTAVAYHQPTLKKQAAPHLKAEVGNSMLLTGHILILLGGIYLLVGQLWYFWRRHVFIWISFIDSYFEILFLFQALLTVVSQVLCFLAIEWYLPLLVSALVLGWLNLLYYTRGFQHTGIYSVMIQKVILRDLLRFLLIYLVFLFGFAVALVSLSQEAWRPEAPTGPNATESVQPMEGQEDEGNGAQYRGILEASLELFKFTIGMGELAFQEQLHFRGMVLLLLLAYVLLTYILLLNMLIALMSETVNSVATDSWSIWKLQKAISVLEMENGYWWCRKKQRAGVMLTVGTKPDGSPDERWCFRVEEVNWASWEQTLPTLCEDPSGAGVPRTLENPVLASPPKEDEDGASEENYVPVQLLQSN
Experimental: Figure 4 Effects of inhibitor compounds on the Ca^2+ response of cells expressing hTRPV1, hTRPV2, or hTRPC1 (A) Effect of compounds on CaCl2 (5 mM)-induced peak fluorescence ratio in non-transfected (nt) or hTRPV2-transfected CHO cells. The extracellular Ca^2+-dependent increase in the ratio of fura-2 fluorescence intensity at 340/380 nm (ΔR, 2 min after addition of chemicals) was plotted as ΔR/R0 after normalising to the initial fluorescence ratio (R0). […] Solid bar, no inhibitor. (B) Effect of compounds on 2-APB (1 mM)/high extracellular CaCl2-induced peak fluorescence ratio in nt or hTRPV1-transfected HEK293 cells. […] (C) Effect of compounds on store-operated Ca^2+ entry in nt or hTRPC1-transfected HEK293 cells. Cells were treated with the endoplasmic reticulum Ca^2+ pump inhibitor thapsigargin and exposed to CaCl2 and the indicated compounds. ΔR was measured 2 min after the addition of CaCl2. […]
[Ca^2+]i was measured by a ratiometric fluorescence method as previously described. […] Fura-2-AM fluorescence was measured using an Aquacosmos fluorescence image processor (Hamamatsu Photonics, Hamamatsu, Japan). The time-course data are presented as the ratio of fluorescence at an excitation wavelength of 340 nm to that at 380 nm. The increase in the fluorescence ratio induced by the TRPV2 agonist 2-APB or high extracellular Ca^2+ (ΔR) was normalized to the initial ratio (R0) before stimulation. […]

human TRPV2 (hTRPV2) [2] = biological target: T1, human TRPV2 (hTRPV2); conditions: cited from earlier work
[3] = biological target: T2, human Cav1.2/β2/α2δ1 L-type calcium channel (Homo sapiens, UniProt Q13936); experiment: L-type Ca2+ current in human Cav1.2/β2/α2δ1 expressing CHO cells (patch clamp); assay type: cell-based; conditions: CHO cells expressing human Cav1.2/β2/α2δ1 calcium channel, pH 7.4, 15 μM lumin, n = 3, read-out: L-type current, % of control
T2 construct: host or cells: CHO cells (purchased recombinant cell line)
Experimental: Figure 8 Effect of lumin on the Ca^2+ response and channel activity in HEK293 cells expressing mTRPV2 (A) Inhibition of the 2-APB-induced increase in [Ca^2+]i in HEK293 cells expressing mTRPV2 by lumin. Cells were loaded with fura-2-AM and stimulated with 2-APB (0.3 mM) in the absence or presence of the indicated concentrations of lumin. The fluorescence ratio was measured by a microplate reader and normalized by the maximal value. Data are shown as mean ± SD (n = 5). (B) Lumin blocked the mTRPV2 channel. The current values at −100 mV measured by an every-2-second ramp protocol were plotted. After the current activated by 200 μM 2-APB at pH 6.5 became stable, a mixture of 15 μM lumin and 2-APB was applied to the cells. (C) Effect of lumin on the current-voltage relationship of 2-APB-evoked current. (D) Concentration-dependence of lumin for the inhibition of mTRPV2 current. Data are shown as mean ± SD (n = 3–5) (E) Effect of lumin (15 μM) on L-type Ca^2+ channel activity. The current waveforms of the control cells and the cells 11 minutes after application of 15 μM lumin were superimposed. […]
For the measurement of L-type Ca^2+ currents, human Cav1.2/β2/α2δ1 calcium channel expressing CHO cells were purchased from ChanTest (Cleveland, OH, USA). […] The data were analysed and plotted with Clampfit 9 (Molecular Devices, LLC, Sunnyvale, CA, USA). […]

T2 sequence (Q13936 whole entry): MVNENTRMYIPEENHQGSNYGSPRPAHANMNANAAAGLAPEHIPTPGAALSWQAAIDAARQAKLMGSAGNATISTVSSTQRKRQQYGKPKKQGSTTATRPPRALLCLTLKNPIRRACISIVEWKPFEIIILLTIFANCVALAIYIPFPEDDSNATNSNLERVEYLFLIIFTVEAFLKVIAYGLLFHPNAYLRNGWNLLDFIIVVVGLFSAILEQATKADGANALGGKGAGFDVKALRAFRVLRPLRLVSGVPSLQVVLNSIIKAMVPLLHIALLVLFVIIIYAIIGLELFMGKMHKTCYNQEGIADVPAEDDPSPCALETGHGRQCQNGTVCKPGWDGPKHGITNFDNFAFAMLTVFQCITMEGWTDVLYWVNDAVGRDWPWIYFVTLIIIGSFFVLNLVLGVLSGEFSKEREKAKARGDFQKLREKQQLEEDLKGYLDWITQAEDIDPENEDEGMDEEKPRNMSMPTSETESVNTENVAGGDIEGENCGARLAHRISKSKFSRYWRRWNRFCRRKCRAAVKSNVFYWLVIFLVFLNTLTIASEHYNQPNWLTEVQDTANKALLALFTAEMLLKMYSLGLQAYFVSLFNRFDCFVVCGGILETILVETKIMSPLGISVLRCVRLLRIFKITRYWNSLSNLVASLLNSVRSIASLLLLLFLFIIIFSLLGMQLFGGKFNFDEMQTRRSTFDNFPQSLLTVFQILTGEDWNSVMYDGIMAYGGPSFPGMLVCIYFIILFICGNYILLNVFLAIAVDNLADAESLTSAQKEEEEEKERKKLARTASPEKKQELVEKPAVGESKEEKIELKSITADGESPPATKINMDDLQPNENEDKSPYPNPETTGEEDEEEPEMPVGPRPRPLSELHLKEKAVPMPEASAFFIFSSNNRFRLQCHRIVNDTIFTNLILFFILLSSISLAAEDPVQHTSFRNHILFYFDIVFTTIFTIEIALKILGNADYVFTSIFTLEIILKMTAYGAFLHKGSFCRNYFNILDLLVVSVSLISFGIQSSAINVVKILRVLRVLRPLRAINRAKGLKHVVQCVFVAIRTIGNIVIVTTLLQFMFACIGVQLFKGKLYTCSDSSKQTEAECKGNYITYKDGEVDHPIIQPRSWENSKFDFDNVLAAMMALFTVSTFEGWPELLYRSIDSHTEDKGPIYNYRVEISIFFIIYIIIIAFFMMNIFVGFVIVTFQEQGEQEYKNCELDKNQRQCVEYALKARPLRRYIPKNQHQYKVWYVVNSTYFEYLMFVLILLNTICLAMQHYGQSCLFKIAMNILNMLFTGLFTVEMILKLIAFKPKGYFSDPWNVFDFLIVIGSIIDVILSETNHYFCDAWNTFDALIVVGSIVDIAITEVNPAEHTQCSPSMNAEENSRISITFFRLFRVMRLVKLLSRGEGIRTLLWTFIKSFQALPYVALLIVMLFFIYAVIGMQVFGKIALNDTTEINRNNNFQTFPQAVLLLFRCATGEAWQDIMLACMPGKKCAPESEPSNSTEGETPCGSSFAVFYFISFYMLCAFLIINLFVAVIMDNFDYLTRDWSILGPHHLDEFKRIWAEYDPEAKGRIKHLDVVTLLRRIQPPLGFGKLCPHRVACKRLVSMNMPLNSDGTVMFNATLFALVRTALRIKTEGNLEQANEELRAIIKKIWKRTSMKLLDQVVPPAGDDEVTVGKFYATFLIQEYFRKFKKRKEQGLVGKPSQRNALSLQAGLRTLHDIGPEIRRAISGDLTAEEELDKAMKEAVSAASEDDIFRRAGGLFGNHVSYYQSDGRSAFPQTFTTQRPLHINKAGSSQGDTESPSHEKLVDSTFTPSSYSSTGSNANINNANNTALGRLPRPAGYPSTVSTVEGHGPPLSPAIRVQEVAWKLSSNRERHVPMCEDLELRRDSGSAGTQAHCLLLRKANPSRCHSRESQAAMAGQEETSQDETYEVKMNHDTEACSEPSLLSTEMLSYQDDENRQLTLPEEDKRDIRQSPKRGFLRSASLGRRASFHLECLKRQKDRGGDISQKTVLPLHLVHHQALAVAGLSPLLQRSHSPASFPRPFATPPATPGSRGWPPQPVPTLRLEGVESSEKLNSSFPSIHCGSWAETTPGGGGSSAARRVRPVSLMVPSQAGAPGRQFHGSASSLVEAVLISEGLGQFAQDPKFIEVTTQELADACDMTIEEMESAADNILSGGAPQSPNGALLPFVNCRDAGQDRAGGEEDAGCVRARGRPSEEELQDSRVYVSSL
T2 sequence (Q08289 whole entry partner): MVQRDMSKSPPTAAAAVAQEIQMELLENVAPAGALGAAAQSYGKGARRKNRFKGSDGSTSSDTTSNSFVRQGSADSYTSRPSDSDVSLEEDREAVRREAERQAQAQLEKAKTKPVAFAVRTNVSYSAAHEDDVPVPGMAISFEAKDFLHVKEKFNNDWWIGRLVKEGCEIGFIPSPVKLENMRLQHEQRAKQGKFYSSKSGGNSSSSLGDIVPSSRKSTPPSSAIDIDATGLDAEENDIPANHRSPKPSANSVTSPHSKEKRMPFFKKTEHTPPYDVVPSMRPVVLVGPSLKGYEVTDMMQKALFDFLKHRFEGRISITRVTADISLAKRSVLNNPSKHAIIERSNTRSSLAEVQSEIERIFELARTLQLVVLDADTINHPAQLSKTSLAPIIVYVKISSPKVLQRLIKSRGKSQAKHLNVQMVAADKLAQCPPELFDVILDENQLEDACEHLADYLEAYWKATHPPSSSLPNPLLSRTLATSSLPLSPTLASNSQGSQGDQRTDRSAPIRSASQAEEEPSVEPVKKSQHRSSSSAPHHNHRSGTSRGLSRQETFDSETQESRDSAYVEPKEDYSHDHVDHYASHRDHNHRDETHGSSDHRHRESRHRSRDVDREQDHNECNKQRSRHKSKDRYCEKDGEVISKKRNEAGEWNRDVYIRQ
T2 sequence (P54289 25-956 partner limits assumed): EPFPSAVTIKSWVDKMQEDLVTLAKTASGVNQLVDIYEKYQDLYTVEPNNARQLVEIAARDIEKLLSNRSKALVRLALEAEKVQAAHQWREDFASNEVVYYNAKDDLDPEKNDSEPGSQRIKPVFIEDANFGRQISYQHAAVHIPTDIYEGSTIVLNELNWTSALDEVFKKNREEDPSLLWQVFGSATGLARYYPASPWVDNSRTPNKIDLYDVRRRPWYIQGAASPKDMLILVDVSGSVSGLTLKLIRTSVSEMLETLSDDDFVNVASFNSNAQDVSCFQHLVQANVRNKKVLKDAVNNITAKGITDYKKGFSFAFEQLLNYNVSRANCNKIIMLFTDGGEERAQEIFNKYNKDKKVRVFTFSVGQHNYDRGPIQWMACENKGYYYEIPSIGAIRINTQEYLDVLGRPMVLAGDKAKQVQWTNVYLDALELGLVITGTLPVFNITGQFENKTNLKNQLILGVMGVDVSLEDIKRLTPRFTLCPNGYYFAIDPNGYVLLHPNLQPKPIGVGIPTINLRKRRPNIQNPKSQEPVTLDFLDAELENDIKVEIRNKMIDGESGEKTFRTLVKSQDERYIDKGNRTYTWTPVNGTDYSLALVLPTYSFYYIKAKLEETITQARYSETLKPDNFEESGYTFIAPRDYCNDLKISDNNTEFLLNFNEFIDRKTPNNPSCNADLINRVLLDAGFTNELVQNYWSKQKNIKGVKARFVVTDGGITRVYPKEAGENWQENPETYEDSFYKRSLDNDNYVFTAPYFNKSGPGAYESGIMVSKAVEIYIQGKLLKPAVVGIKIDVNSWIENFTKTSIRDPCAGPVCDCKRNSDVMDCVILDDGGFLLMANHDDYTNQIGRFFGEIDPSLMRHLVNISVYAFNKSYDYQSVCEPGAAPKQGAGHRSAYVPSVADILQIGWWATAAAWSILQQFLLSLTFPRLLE
T2 sequence (P54289 957-1103 partner limits assumed): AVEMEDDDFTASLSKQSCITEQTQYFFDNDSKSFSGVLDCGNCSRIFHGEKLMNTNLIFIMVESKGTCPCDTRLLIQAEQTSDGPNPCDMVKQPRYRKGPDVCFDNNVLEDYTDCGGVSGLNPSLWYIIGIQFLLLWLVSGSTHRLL

effect on Ca2+ influx in response to CaCl2 exposure (human TRPV2 (hTRPV2) [1]) | SMILES | also measured
not | COc1cccc(OCCn2cc(/C=N/n3cnnc3)c3ccccc32)c1 [B6, 1-{2-[3-((1E)-2-(1,2,4-triazol-4-yl)-2-azavinyl)indolyl]ethoxy}-3-methoxybenzene] | 
 | NCCOB(c1ccccc1)c1ccccc1 [2-APB, 2-aminoethoxydiphenylborate] | response of hTRPV2 to 2-APB (human TRPV2 (hTRPV2) [2]): unresponsive
 | CCN1C=CC(=CC=C(C=Cc2cc[n+](CC)c3ccccc23)c2cc[n+](CC)c3ccccc23)c2ccccc21.[I-].[I-] [lumin, 4,4′-[3-[2-[1-ethyl-4(1H)-quinolinylidene]ethylidene]-1-propene-1,3-diyl]bis(1-ethylquinolinium) diiodide] | activity at 11 min, 15 μM [3]: 96.6 ± 8.7%
markedly inhibited | COc1cc(/C=C(\C#N)C(=O)Nc2ccccc2C(=O)O)cc(Cl)c1OC [A3, 2-[(2E)-3-(3-Chloro-4,5-dimethoxyphenyl)-2-cyanoprop-2-enoylamino]benzoic acid] | 
